Assay results published in US9481677B2, “Biaryl ether sulfonamides and their use as therapeutic agents” (XENON PHARMACEUTICALS INC., priority 2011, dated 2016).

biological target: Nav1.7 (Homo sapiens (Human), UniProt Q15858); test: Patch voltage clamp electrophysiology, block of inactivated-state Nav1.7 in HEK-293 cells; assay type: cell-based; conditions: affinity for the inactivated state; HEK-293 cells with β1 subunit; held at -60 mV; read-out: NaV1.7 (IC50 class)
Description: Patch voltage clamp electrophysiology allows for the direct measurement and quantification of block of voltage-gated sodium channels (Nav's), and allows the determination of the time- and voltage-dependence of block which has been interpreted as differential binding to the resting, open, and inactivated states of the sodium channel (Hille, B., Journal of General Physiology (1977), 69: 497-515).
The following patch voltage clamp electrophysiology studies were performed on representative compounds of the invention using human embryonic kidney cells (HEK), permanently transfected with an expression vector containing the full-length cDNA coding for the desired human sodium channel α-subunit, grown in culture media containing 10% FBS, 1% PSG, and 0.5 mg/mL G418 at 37° C. with 5% CO2. […] Nav1.7 and Nav1.5 cDNAs (NM_002977 and AC137587; SCN5A, respectively) were stably expressed in HEK-293 cells. The β1 subunit was coexpressed only in the Nav1.7 cell line.
Sodium currents were measured using the patch clamp technique in the whole-cell configuration using either a PatchXpress automated voltage clamp or manually using an Axopatch 200B (Axon Instruments) or Model 2400 (A-M systems) amplifier. […] The pipette was filled with a solution comprised of: 5 mM NaCl, 10 mM CsCl, 120 mM CsF, 0.1 mM CaCl2, 2 mM MgCl2, 10 mM HEPES, 10 mM EGTA; and adjusted to pH 7.2 with CsOH. The external solution had the following composition: 140 mM NaCl, 5 mM KCl, 2 mM CaCl2, 1 mM MgCl2, 10 mM HEPES; and adjusted to pH 7.4 with NaOH. In some studies, the external sodium was reduced by equimolar replacement with choline. Osmolarity in the CsF internal and NaCl external solutions was adjusted to 300 mOsm/kg and 310 mOsm/kg with glucose, respectively. All recordings were performed at ambient temperature in a bath chamber with a volume of 150 μL. Control sodium currents were measured in 0.5% DMSO. Controls and representative compounds of the invention were applied to the recording chamber through a 4-pinch or 8-pinch valve bath perfusion system manufactured by ALA Scientific Instruments.
Currents were recorded at 40 kHz sampling frequency, filtered at […], and stored using a Digidata-1322A analogue/digital interface with the pClamp software (Axon Instruments). Series resistance compensation was applied (60-80%). […] All statistics in this study are given as mean±SD.
The membrane potential was maintained at a voltage where inactivation of the channel is complete (which was −60 mV for both Nav1.7 and Nav1.5). The voltage is then stepped back to a very negative (Vhold=−150 mV) voltage for 20 ms and then a test pulse is applied to quantify the compound block. […] The percent decrease in sodium current following wash-on of compound was taken as the percent block of sodium channels.
The Example numbers provided in Table 1 and Table 2 correspond to the Examples herein.

Nav1.7, sequence (Q15858 other isoform, or with tags, fused parts or gaps): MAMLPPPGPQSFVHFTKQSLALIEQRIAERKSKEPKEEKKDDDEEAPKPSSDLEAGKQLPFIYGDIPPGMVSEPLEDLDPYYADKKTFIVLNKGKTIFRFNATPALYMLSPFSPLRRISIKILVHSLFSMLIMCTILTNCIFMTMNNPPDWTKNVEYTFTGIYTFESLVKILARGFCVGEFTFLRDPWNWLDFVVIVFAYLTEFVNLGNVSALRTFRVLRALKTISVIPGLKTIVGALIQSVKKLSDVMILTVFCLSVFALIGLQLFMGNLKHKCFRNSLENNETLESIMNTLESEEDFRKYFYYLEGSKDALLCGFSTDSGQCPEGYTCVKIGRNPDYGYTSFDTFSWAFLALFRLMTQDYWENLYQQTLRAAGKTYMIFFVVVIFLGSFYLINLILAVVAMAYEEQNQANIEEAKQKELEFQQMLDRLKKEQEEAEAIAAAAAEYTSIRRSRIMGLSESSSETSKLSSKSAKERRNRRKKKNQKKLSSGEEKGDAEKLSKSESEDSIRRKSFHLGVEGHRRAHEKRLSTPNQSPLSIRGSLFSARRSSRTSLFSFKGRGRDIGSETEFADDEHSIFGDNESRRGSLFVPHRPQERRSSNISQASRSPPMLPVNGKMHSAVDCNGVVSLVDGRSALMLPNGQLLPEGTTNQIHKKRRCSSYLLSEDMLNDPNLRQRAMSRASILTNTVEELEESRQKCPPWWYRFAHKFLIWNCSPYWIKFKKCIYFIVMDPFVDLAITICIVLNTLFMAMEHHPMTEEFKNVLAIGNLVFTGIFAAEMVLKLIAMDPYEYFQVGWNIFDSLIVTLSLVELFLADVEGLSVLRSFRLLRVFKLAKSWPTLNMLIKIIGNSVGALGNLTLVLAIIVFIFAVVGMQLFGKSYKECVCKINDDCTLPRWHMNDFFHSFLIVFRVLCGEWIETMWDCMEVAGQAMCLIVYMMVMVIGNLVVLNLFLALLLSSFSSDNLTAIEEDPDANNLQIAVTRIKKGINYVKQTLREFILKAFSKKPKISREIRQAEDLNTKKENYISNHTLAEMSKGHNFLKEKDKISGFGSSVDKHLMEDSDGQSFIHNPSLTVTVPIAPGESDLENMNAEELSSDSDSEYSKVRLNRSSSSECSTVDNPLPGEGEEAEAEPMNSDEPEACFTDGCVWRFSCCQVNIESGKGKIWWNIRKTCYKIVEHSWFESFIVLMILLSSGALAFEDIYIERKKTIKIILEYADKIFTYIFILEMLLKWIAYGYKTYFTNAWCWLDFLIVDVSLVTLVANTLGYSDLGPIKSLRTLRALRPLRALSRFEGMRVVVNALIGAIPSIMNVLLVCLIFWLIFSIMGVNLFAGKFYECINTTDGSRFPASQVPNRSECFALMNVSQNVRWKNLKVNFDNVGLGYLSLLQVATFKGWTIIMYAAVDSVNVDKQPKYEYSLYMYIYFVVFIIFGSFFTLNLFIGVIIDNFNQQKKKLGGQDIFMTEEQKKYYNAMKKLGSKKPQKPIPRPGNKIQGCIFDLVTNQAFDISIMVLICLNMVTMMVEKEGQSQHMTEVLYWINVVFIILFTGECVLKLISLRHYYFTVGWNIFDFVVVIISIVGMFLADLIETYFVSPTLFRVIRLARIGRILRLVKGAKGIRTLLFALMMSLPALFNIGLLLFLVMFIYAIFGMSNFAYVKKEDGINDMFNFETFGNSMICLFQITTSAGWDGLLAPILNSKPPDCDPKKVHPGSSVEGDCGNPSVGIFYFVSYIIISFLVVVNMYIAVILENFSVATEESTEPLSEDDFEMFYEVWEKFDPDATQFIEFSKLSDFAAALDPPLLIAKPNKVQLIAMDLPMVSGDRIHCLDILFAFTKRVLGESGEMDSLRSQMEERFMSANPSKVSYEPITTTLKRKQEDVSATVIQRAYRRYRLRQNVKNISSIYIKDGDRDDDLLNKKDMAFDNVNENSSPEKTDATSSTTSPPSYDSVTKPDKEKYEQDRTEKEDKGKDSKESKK
Nav1.7, sequence (Q07699 19-218 partner): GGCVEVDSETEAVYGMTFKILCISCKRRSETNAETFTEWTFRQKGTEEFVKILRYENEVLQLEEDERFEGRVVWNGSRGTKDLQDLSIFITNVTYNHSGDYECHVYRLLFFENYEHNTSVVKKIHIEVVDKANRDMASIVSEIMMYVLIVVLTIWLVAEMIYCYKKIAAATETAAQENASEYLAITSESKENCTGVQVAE

IC50, ≤ 100 nM:
O=S(=O)(Nc1ncns1)c1cc(F)c(Oc2ccc(Cl)cc2-c2ccc3[nH]cnc3c2)cc1F [Example 73, 4-(2-(1H-benzo[d]imidazol-5-yl)-4-chlorophenoxy)-2,5-difluoro-N-(1,2,4-thiadiazol-5-yl)benzenesulfonamide]
O=C1Cc2cc(-c3cc(Cl)ccc3Oc3cc(F)c(S(=O)(=O)Nc4ncns4)cc3F)ccc2N1 [Example 77, 4-(4-chloro-2-(2-oxoindolin-5-yl)phenoxy)-2,5-difluoro-N-(1,2,4-thiadiazol-5-yl)benzenesulfonamide]
O=c1[nH]c2cc(-c3cc(Cl)ccc3Oc3ccc(S(=O)(=O)Nc4ncccn4)cc3F)ccc2o1 [Example 79, 4-(4-chloro-2-(2-oxo-2,3-dihydrobenzo[d]oxazol-5-yl)phenoxy)-3-fluoro-N-(pyrimidin-2-yl)benzenesulfonamide]
Nc1noc2ccc(-c3cc(F)ccc3Oc3cc(F)c(S(=O)(=O)Nc4ncns4)cc3F)cc12 [Example 80, 4-(2-(3-aminobenzo[d]isoxazol-5-yl)-4-fluorophenoxy)-2,5-difluoro-N-(1,2,4-thiadiazol-5-yl)benzenesulfonamide]
Cc1ccc(Oc2cc(F)c(S(=O)(=O)Nc3ncns3)cc2F)c(-c2ccc3oc(=O)[nH]c3c2)c1 [Example 82, 2,5-difluoro-4-(4-methyl-2-(2-oxo-2,3-dihydrobenzo[d]oxazol-5-yl)phenoxy)-N-(1,2,4-thiadiazol-5-yl)benzenesulfonamide]
CN(C)c1noc2ccc(-c3cc(Cl)ccc3Oc3cc(F)c(S(=O)(=O)Nc4ncns4)cc3F)cc12 [Example 98, 4-(4-chloro-2-(3-(dimethylamino)benzo[d]isoxazol-5-yl)phenoxy)-2,5-difluoro-N-(1,2,4-thiadiazol-5-yl)benzenesulfonamide]
